# Columns and labels:
# [1] = Long-term stability and shelf-life of nanoparticles (size and PDI over time); format: physicochemical; details: trametinib nanoparticles with different dyes; within the first 24 hours
# Procedure: (§1) Manual preparation of nanoparticles. 100 μL of drugs dissolved in DMSO (10 mg/ml) were added under slight vortexing to 0.5 ml of 0.1 M sodium bicarbonate buffer containing 1.6 mg/ml R595 (100 μl from 10 mg/ml stock solution in 0.5 ml). For comparison with other stabilizers, the R595 was replaced with the following excipients: Pluronic F-127, sodium lauryl sulfate (SDS), carboxymethyl cellulose (CMC), α-cyclodextrin (αCD), β-cyclodextrin (βCD), βCD-SO3, and human serum albumin (HSA). All compounds were dissolved as 10 mg/ml in DDW. Further comparison of R595 with IR783/IR820 based nanoparticles was also performed in DDW. The solutions were centrifuged (30,000 g, 15 min, room temperature) and the pellet was resuspended in 1 ml of DDW. In the automation process, using the Andrew Alliance pipetting robot (Waters Corp, MA), the nanoparticles were purified using a PD-10 desalting column (Cytiva, Marlborough, MA) and 1.7 ml of eluent was collected after 2.5 ml void volume (defined by the vendor).
# Characterization of nanoparticles. Dynamic light scattering (DLS) measurements were conducted using a Zetasizer Nano ZS (Malvern Panalytical, Malvern, UK).
# [2] = system: 3T3 cells; assay: Image-based cell counting toxicity assay; design: species or system mouse; details: free drug; attributed to >5% DMSO in the medium
# Procedure: Polymers toxicity assay in 2D. 3T3 Cells were seeded in 96 well plates at a 30% confluency (6000 cells per well) and allowed to adhere for 24 h. Polymers were purified with Sephadex G25 columns, nanoparticles were suspended in DDW and added to the wells. Untreated cells (control) were used to establish 100% viability. The effect on cell viability was measured with MTT (5 mg/ml, Glentham Life Sciences, UK).
# In-vitro toxicity and anti-tumor efficacy experiments. First, we tested the three leading copolymers for in-vitro cytotoxicity, using mouse embryonic fibroblast cells (3T3 cells) as a non-cancerous model (FIG. 12). The copolymers were purified with Sephadex G25 columns and were serially diluted in a 96-well plate seeded with the cells. We used two separate viability assays: MTT and an image-based cell counting method using automated microscopy. In the MTT assay we found no reduction in cell viability over control, even in the highest concentration of polymers (FIG. 12, upper and middle panels). […] The cells morphology was not changed following incubation with the polymers, though at higher concentrations intracellular dark vesicles could be observed, indicating cellular uptake into the endo-lysosomal pathway (FIG. 13).
# [3] = system: HCT116; assay: Cell viability assay in 2D (anti-cancer drug-screen); format: cell-based, human
# Procedure: (§2) Cell viability assay in 2D. Cells were seeded in 96 well plates at a 30% confluency and allowed to adhere for 24 h. All drugs were dissolved in DMSO. Nanoparticles were suspended in DDW and were added to the wells after dilution with growth medium. Untreated cells (control) were used to establish 100% viability. The effect on cell viability was measured both with Promega® CellTiter-Glo® (CTG) and with images taken by the Lionheart followed by a cell count feature provided by the vendor (BioTeK).
# [4] = system: KPL; assay: as above; format: cell-based, mice
# Procedure: as §2
# [5] = DLS size and PDI of drug nanoparticles with dye stabilizers (Study 1); format: physicochemical; details: for nanoparticle formation with IR783: stabilizer IR783; for nanoparticle formation with R595: stabilizer R595
# Procedure: as §1, with “For” for “Manual preparation of nanoparticles. 100 μL of drugs dissolved in DMSO (10 mg/ml) were added under slight vortexing to 0.5 ml of 0.1 M sodium bicarbonate buffer containing 1.6 mg/ml R595 (100 μl from 10 mg/ml stock solution in 0.5 ml). For”, “R595” left out, “vendor). Characterization of nanoparticles. Dynamic light scattering (DLS) measurements were conducted using a Zetasizer Nano ZS (Malvern Panalytical, Malvern, UK).” for “vendor).”
# [6] = system: KPL cells; details: mouse, in vivo, ip
# Procedure: KRAS driven lung tumor studies. Six-weeks-old female C57BL/6J mice strain were purchased from Envigo RMS. Inducing tumors in the lung was done by injecting 10^5 KPL cells suspended in 200 μl of PBS intravenously (IV) via the tail vein. […] For efficacy studies, treatments were administered biweekly for ten weeks. For safety studies, immunohistochemistry (H&E) was done on treated mice. Animals were euthanized using CO2 inhalation. Mice were housed in air-filtered laminar flow cabinets with a 12-hr light/dark cycle and food and water ad libitum.
# [7] = DLS size, PDI and stability of copolymer-stabilized nanoparticles (Study 2); format: physicochemical; details: nilotinib nanoparticles
# Procedure: Preparation of nanoparticles. Drugs dissolved in DMSO (Carlo Erba, 10 mg/ml) were added under slight vortex to aqueous dye solution, buffered with 0.1M sodium bicarbonate. IR783 (Sigma-Aldrich) and the polymers' concentrations were 2 mg/ml. […] If the particles were cleaned in centrifuge, the solution was sonicated using Sonics' Vibra-cell ultrasonic processor (20% amplitude, 3 seconds pulses) until homogenous.
# Characterization of nanoparticles. DLS measurements were conducted using a Zetasizer Nano ZS (Malvern Panalytical, Malvern, UK).
compound,measurement,setting,value
CC1(C)C(=CC=C2CCCC(C=CC3=[N+](CCCCS(=O)(=O)[O-])c4ccc5ccccc5c4C3(C)C)=C2Cl)N(CCCCS(=O)(=O)[O-])c2ccc3ccccc3c21.[Na+] [IR820],stabilizer comparison (size and PDI),[1],better stabilizer than IR783
"CNC(=O)c1ccc(N2C(=S)N(c3ccc(C#N)c(C(F)(F)F)c3)C(=O)C2(C)C)cc1F [Free enzalutamide, enzalutamide]",toxicity in 3T3 cells,[2],slight toxicity in high concentrations
CC(C)C[C@H](NC(=O)[C@H](CCc1ccccc1)NC(=O)CN1CCOCC1)C(=O)N[C@@H](Cc1ccccc1)C(=O)N[C@@H](CC(C)C)C(=O)[C@@]1(C)CO1 [carfilzomib],potency in cell viability drug-screen with 7 drugs,[3],highest potency
same,potency in cell viability drug-screen with 7 drugs,[4],highest potency
CCc1c2c(nc3ccc(OC(=O)N4CCC(N5CCCCC5)CC4)cc13)-c1cc3c(c(=O)n1C2)COC(=O)[C@]3(O)CC [irinotecan],nanoparticle formation with IR783,[5],failed to form nanoparticles
same,nanoparticle formation with R595,[5],formed stable nanoparticles
CC(=O)Nc1cccc(-n2c(=O)n(C3CC3)c(=O)c3c(Nc4ccc(I)cc4F)n(C)c(=O)c(C)c32)c1 [trametinib],toxicity as observed with weight changes,[6],no dose limiting toxicities
CC1(C)C(=CC=C2CCCC(C=CC3=[N+](CCCCS(=O)(=O)[O-])c4ccccc4C3(C)C)=C2Cl)N(CCCCS(=O)(=O)[O-])c2ccccc21.[Na+] [IR783],time to aggregation,[7],≤ 24 h
COc1cc2nccc(Oc3ccc(NC(=O)NC4CC4)c(Cl)c3)c2cc1C(N)=O [lenvatinib],nanoparticle formation with IR783,[5],failed to form nanoparticles
same,nanoparticle formation with R595,[5],formed stable nanoparticles
